Measurements taken from patent US12239650B2, “Compounds for treating and preventing net associated complications” (The Australian National University, priority 2019, dated 2025).

What was measured:
[1] = tested on: histone-mediated cytotoxicity for HMEC-1; assay: Histone-mediated cytotoxicity assay (PI/Calcein-AM flow cytometry); type: cell-based
Method: Histone-mediated cytotoxicity assays. To determine the cytotoxicity of calf thymus histones (Sigma-Aldrich), various concentrations of histones (100-800 μg ml^−1) were added to suspensions of HMEC-1 or HUVEC (1×10^6 ml^−1) in 96 well plates and incubated for 1 h at 37° C. Cells were then incubated for 5 min at 37° C. with propidium iodide (PI; 2.5 μg ml^−1) (ThermoFisher Scientific), to detect dead cells, and Calcein-AM (0.04 μM) (ThermoFisher Scientific), to detect viable cells, placed on ice and the percentage of dead and viable cells determined by flow cytometry using gating strategies. In inhibition assays, HMEC-1 were incubated with histones (400 μg ml^−1) for 1 h at 37° C. in the presence of different concentrations of compounds (12.5-400 μg ml^−1) prior to the addition of PI and Calcein-AM. HMEC-1 cytotoxicity at each compound concentration was then determined based on the formula:
[formula] and the IC50 value for each polyanion then determined based on the line of best fit (nonlinear regression analysis) using Prism Software (Graphpad Software). In all assays MTS (IC50 30 μg ml^−1) was included as a standard to compensate for experimental variation, with data being adjusted in each assay to MTS having an IC50 of 30 μg ml^−1.

[2] = tested on: histone-induced erythrocyte rigidity; assay: Erythrocyte deformability, passage through artificial spleen; type: cell-based, human; conditions: histones 400 μg ml^−1, compounds 100 and 200 μg ml^−1, FIG. 3d
Method: Human erythrocytes (RBC) were incubated for 1 h at 37° C. alone (‘Saline’ control) or in the presence of histones (400 μg ml^−1) with or without mCBS (200 μg ml^−1). a, Percentage of RBC aggregation measured by flow cytometry based on forward (FSC) and side (SSC) scatter parameters and an appropriate gating strategy to discriminate aggregated from normal (non-aggregated) RBC. b, Scanning electron micrographs depicting level of RBC aggregation at low and high magnification following the three treatments depicted in (a). c, Concentration dependent inhibition of histone-mediated RBC aggregation by mCBS and MTS, in this case RBC aggregation being calculated by flow cytometry as fold increase in RBC auto-fluorescence relative to RBC in the absence of histones. The fold increase values also provide an estimate of the number of RBC in each aggregate. d, Retention of RBC in an artificial spleen that measures RBC deformability. […]
In vitro erythrocyte microscopy, aggregation, fragility and deformability assays. […] Similarly, erythrocyte fragility induced by histones, in the presence or absence of inhibitors, was quantified using a sheer stress assay that we developed recently (Kordbacheh, F., O'Meara, C. H., Coupland, L. A., Lelliott, P. M. & Parish, C. R. Extracellular histones induce erythrocyte fragility and anemia. Blood 130, 2884-2888 (2017)). […]

[3] = tested on: anti-proliferative effect of histones on HMEC-1; assay: HMEC-1 proliferation (3H-thymidine) after histone exposure; type: cell-based, human; conditions: compounds 100 μg ml^−1, histones 400 μg ml^−1, FIG. 8b
[4] = Rat ischemia reperfusion tissue (skin) flap model; type: in vivo; conditions: rat skin flap IRI, 50 mg kg^−1 i.p., 72 h, FIG. 7d
Source text: Rat ischemia reperfusion tissue flap model. The procedure employed is largely based on a previously described method (Bone, R. C. et al. Definitions for sepsis and organ failure and guidelines for the use of innovative therapies in sepsis. The ACCP/SCCM Consensus Conference Committee. American College of Chest Physicians/Society of Critical Care Medicine. Chest 101, 1644-1655 (1992)). Briefly, male Wistar rats were anaesthetized, locally depilated and a 3 cm by 6 cm fasciocutaneous flap was excised leaving the vascular pedicle intact. […] The clamp was removed 10 h post-application permitting returned blood flow to the flap. Test compounds (50 mg kg^−1) or saline were administered i.p. 5 min prior to clamp application and 5 min following its removal. The rats were monitored for a total experimental period of 72 h during which rats received additional compound or saline i.p. at 24 and 48 h post-op. The ‘Control No Clamp’ rats had the tissue flap excised and rubber placed underneath prior to re-suturing, however, the vessel was not clamped and they received saline at the same time points as the other rats. At the end of the experimental period the viability of the flaps was determined by the percentage of black necrotic or reddened areas versus pink viable areas. […]

Structure (SMILES): O=S(=O)(O)OC[C@H]1O[C@H](O[C@H]2[C@H](OS(=O)(=O)O)[C@@H](OS(=O)(=O)O)C(OS(=O)(=O)O)O[C@@H]2COS(=O)(=O)O)[C@H](OS(=O)(=O)O)[C@@H](OS(=O)(=O)O)[C@@H]1O[C@H]1O[C@H](COS(=O)(=O)O)[C@@H](OS(=O)(=O)O)[C@H](OS(=O)(=O)O)[C@H]1OS(=O)(=O)O (some centres unmarked) [MTS, maltotriose per-O-sulfate]
- Inhibition of histone-mediated cytotoxicity for HMEC-1 (endothelial cells) ([1]; compared with heparin, FIG. 2a): as effective as heparin
- IC50, inhibition of histone-mediated HMEC-1 cytotoxicity ([1]; histones 400 μg ml^−1, 1 h 37° C., MTS used as standard in all assays): 30 µg/mL
- Ability of erythrocytes to passage through an artificial spleen [2]: totally restored
- Neutralization of anti-proliferative effect of histones on HMEC-1 monolayers [3]: completely neutralized
- Viable area of the skin flap [4]: highly variable
